# Data published in the supplement of paper PMC11368000.
# How the values were obtained:
# Conditions in all cases: exposure time: 90 min
# [1] = system: 20032 (donor line of iPSC-derived cardiomyocytes); test: POD (EC05) for increase in Ca2+ transient decay-to-rise ratio (QT prolongation) vs vehicle; higher = less potent (higher point of departure)
# Experimental: (§1)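 Human iPSC-derived cardiomyocytes from 16 donors were exposed for 90 min at 37 °C to each PFAS at 0.1, 1, 10 and 100 µM in 0.5% DMSO, 384-well plates. Kinetic Ca2+ flux (FLIPR) and Hoechst nuclei counts were normalised to vehicle wells and fitted with a hierarchical Bayesian Hill model to give donor-specific PODs: EC05 for beat-rate increase or decrease and for decay-to-rise ratio increase (QT proxy), EC95 for peak-frequency loss (asystole), EC10 for total cell number loss. 0.03 µM is the lower bound.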
# [2] = system: 1535 (donor line of iPSC-derived cardiomyocytes); test: as above
# Experimental: as §1
# [3] = system: 1083 (donor line of iPSC-derived cardiomyocytes); test: as above
# Experimental: as §1
# [4] = system: 30145 (donor line of iPSC-derived cardiomyocytes); test: as above
# Experimental: as §1
# [5] = system: 1565 (donor line of iPSC-derived cardiomyocytes); test: as above
# Experimental: as §1
# [6] = system: 1392 (donor line of iPSC-derived cardiomyocytes); test: as above
# Experimental: as §1
# [7] = system: 1118 (donor line of iPSC-derived cardiomyocytes); test: as above
# Experimental: as §1
# [8] = system: 1368 (donor line of iPSC-derived cardiomyocytes); test: as above
# Experimental: as §1
# [9] = system: 11235 (donor line of iPSC-derived cardiomyocytes); test: as above
# Experimental: as §1
# [10] = system: 1434 (donor line of iPSC-derived cardiomyocytes); test: as above
# Experimental: as §1
# [11] = system: 30171 (donor line of iPSC-derived cardiomyocytes); test: as above
# Experimental: as §1
# [12] = system: 1309 (donor line of iPSC-derived cardiomyocytes); test: as above
# Experimental: as §1
# [13] = system: 20084 (donor line of iPSC-derived cardiomyocytes); test: as above
# Experimental: as §1
# [14] = system: 1535; test: POD (EC10) for decrease in total cell number (cytotoxicity) vs vehicle; higher = less potent (higher point of departure)
# Experimental: as §1
# [15] = system: 1516 (donor line of iPSC-derived cardiomyocytes); test: as above
# Experimental: as §1
# [16] = system: 1083; test: as above
# Experimental: as §1
# [17] = system: 1518 (donor line of iPSC-derived cardiomyocytes); test: as above
# Experimental: as §1
# [18] = system: 1118; test: as above
# Experimental: as §1
# [19] = system: 1368; test: as above
# Experimental: as §1
# [20] = system: 1309; test: as above
# Experimental: as §1
Structure (SMILES),POD vs vehicle [1] [µM],POD vs vehicle [2] [µM],POD vs vehicle [3] [µM],POD vs vehicle [4] [µM],POD vs vehicle [5] [µM],POD vs vehicle [6] [µM],POD vs vehicle [7] [µM],POD vs vehicle [8] [µM],POD vs vehicle [9] [µM],POD vs vehicle [10] [µM],POD vs vehicle [11] [µM],POD vs vehicle [12] [µM],POD vs vehicle [13] [µM],POD vs vehicle [14] [µM],POD vs vehicle [15] [µM],POD vs vehicle [16] [µM],POD vs vehicle [17] [µM],POD vs vehicle [18] [µM],POD vs vehicle [19] [µM],POD vs vehicle [20] [µM]
"O=C(CC(=O)C(F)(F)C(F)(F)F)C(F)(F)F [3H,3H-Perfluoro-2,4-hexanedione]",> 100,> 100,> 100,> 100,> 100,> 100,> 100,> 100,> 100,> 100,> 100,> 100,> 100,> 100,74.4,> 100,> 100,25.1,> 100,> 100
OCCC(F)(F)C(F)(F)C(F)(F)C(F)(F)F [4:2 Fluorotelomer alcohol],> 100,> 100,> 100,> 100,> 100,> 100,> 100,> 100,> 100,> 100,> 100,> 100,> 100,> 100,> 100,> 100,> 100,> 100,> 100,> 100
O=S(=O)(O)CCC(F)(F)C(F)(F)C(F)(F)C(F)(F)F [4:2 Fluorotelomer sulfonic acid],> 100,> 100,> 100,> 100,> 100,> 100,> 100,> 100,> 100,> 100,> 100,> 100,> 100,> 100,> 100,> 100,> 100,> 100,> 100,> 100
OCCC(F)(F)C(F)(F)C(F)(F)C(F)(F)C(F)(F)C(F)(F)F [6:2 Fluorotelomer alcohol],> 100,> 100,> 100,> 100,> 100,> 100,> 100,> 100,> 100,> 100,> 100,> 100,> 100,> 100,> 100,> 100,> 100,> 100,> 100,> 100
O=S(=O)(O)CCC(F)(F)C(F)(F)C(F)(F)C(F)(F)C(F)(F)C(F)(F)F [6:2 Fluorotelomer sulfonic acid],> 100,> 100,> 100,> 100,> 100,> 100,> 100,> 100,> 100,> 100,> 100,> 100,> 100,> 100,> 100,> 100,> 100,> 100,> 100,> 100
OCCC(F)(F)C(F)(F)C(F)(F)C(F)(F)C(F)(F)C(F)(F)C(F)(F)C(F)(F)F [8:2 Fluorotelomer alcohol],> 100,> 100,> 100,> 100,> 100,> 100,> 100,> 100,> 100,> 100,> 100,> 100,> 100,> 100,> 100,> 100,> 100,> 100,> 100,> 100
O=S(=O)(O)CCC(F)(F)C(F)(F)C(F)(F)C(F)(F)C(F)(F)C(F)(F)C(F)(F)C(F)(F)F [8:2 Fluorotelomer sulfonic acid],> 100,> 100,> 100,> 100,> 100,> 100,> 100,> 100,> 100,17.2,20.1,> 100,21.9,> 100,> 100,> 100,> 100,> 100,> 100,> 100
O=C(O)C(F)(F)C(F)(F)C(F)(F)C(F)(F)C(F)(F)C(F)(F)C(F)(F)C(F)(F)Cl [9-Chloro-perfluorononanoic_acid],> 100,> 100,> 100,> 100,> 100,> 100,> 100,> 100,> 100,> 100,> 100,> 100,> 100,> 100,56.2,> 100,> 100,> 100,> 100,> 100
O=P(O)(O)CCC(F)(F)C(F)(F)C(F)(F)C(F)(F)C(F)(F)C(F)(F)C(F)(F)C(F)(F)F [((Perfluorooctyl)ethyl)phosphonic_acid],> 100,> 100,> 100,> 100,> 100,> 100,> 100,> 100,> 100,> 100,> 100,> 100,> 100,> 100,> 100,> 100,> 100,> 100,> 100,> 100
O=C([O-])C(F)(F)C(F)(F)C(F)(F)C(F)(F)C(F)(F)C(F)(F)C(F)(F)F.[NH4+] [Ammonium_perfluorooctanoate],> 100,> 100,> 100,> 100,> 100,> 100,> 100,> 100,> 100,> 100,> 100,> 100,> 100,> 100,> 100,> 100,> 100,> 100,> 100,> 100
OCC(F)(F)C(F)(F)C(F)(F)C(F)(F)C(F)(F)C(F)F [Dodecafluoroheptanol],0.504,> 100,> 100,> 100,> 100,> 100,> 100,> 100,> 100,> 100,> 100,> 100,> 100,> 100,> 100,> 100,> 100,95.5,> 100,> 100
OCC(F)(F)C(F)(F)C(F)(F)F [Heptafluorobutanol],> 100,> 100,> 100,> 100,> 100,> 100,> 100,> 100,> 100,> 100,> 100,> 100,> 100,> 100,> 100,> 100,> 100,> 100,> 100,> 100
OCC(F)(F)C(F)(F)C(F)(F)CO [Hexafluoroamylene_glycol],> 100,> 100,> 100,> 100,> 100,> 100,> 100,> 100,> 100,> 100,> 100,> 100,> 100,> 100,> 100,> 100,> 100,> 100,> 100,> 100
COC(=O)C(F)(F)C(F)(F)OC(F)(C(F)(F)F)C(F)(F)OC(F)=C(F)F (stereo not given) [Methyl_perfluoro(3-(1-ethenyloxypropan-2-yloxy)propanoate)],> 100,> 100,> 100,> 100,> 100,> 100,> 100,> 100,> 100,> 100,> 100,> 100,37.5,> 100,> 100,> 100,> 100,> 100,> 100,> 100
CN(CCO)S(=O)(=O)C(F)(F)C(F)(F)C(F)(F)C(F)(F)C(F)(F)C(F)(F)C(F)(F)C(F)(F)F [N-Methyl-N-(2-hydroxyethyl)perfluorooctanesulfonamide],> 100,> 100,> 100,> 100,> 100,> 100,> 100,> 100,> 100,> 100,> 100,> 100,> 100,> 100,> 100,> 100,> 100,> 100,> 100,> 100
NC(=O)C(F)(F)C(F)(F)C(F)(F)C(F)(F)F [Nonafluoropentanamide],0.52,> 100,> 100,> 100,> 100,> 100,> 100,> 100,> 100,0.357,> 100,> 100,> 100,> 100,> 100,> 100,> 100,> 100,> 100,> 100
NC(=O)C(F)(F)C(F)(F)C(F)(F)C(F)(F)C(N)=O [Octafluoroadipamide],> 100,> 100,> 100,> 100,> 100,> 100,> 100,> 100,> 100,> 100,> 100,> 100,> 100,> 100,> 100,> 100,> 100,> 100,> 100,> 100
O=C(O)C(F)(F)C(F)(F)C(F)(F)OC(F)(F)F [Perfluoro(4-methoxybutanoic)_acid],> 100,> 100,> 100,> 100,> 100,> 100,> 100,> 100,> 100,> 100,> 100,> 100,> 100,> 100,> 100,> 100,> 100,> 100,> 100,> 100
